Measured values published in PMC10763615, “Identification and engineering of potent cyclic peptides with selective or promiscuous binding through biochemical profiling and bioinformatic data analysis” (RSC Chemical Biology, 2023).
Like-named read-outs stand apart in the source and are kept apart here. Positions of bridges follow the written chain, without caps; N, C: chain ends. Residues, ends and D or L forms follow the SMILES beside them. No end group written: not given here.

What was measured:
Assay type in all cases: binding
FGF-R1C ECD = target: T1, FGF-R1C ECD (Homo sapiens, UniProt P11362); assay: biochemical; set-up: DNA constructs for the extracellular domain (ECD) of human FGF-; HPC4 (C); made in house; host or cells: HEK 293-6E
T1 sequence (P11362 22-376 limits assumed): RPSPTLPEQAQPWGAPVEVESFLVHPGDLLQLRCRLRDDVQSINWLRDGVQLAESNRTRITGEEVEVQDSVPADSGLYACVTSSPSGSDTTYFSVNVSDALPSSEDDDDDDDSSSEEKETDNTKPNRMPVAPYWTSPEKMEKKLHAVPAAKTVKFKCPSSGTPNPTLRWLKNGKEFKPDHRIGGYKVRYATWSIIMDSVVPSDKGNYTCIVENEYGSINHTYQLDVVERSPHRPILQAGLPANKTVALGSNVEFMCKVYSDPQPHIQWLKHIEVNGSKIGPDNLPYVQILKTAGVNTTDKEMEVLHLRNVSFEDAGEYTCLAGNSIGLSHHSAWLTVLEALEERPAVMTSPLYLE
Procedure, shortened: (§1)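 Biotinylated FGF-R ECD on streptavidin biosensors was dipped into ~1 μM crude peptide in PBS pH7.4 with 0.05% Tween-20 and 0.01% BSA for association, then into buffer for dissociation, and followed by BLI. Fitted KD values were adjusted for peptide concentration measured by UPLC-CAD.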

FGF-R3C ECD = target: T2, FGF-R3C ECD (Homo sapiens, UniProt P22607); assay: biochemical; set-up: DNA constructs for the extracellular domain (ECD) of human FGF-; HPC4 (C); made in house; host or cells: HEK 293-6E
T2 sequence (P22607 23-375 limits assumed): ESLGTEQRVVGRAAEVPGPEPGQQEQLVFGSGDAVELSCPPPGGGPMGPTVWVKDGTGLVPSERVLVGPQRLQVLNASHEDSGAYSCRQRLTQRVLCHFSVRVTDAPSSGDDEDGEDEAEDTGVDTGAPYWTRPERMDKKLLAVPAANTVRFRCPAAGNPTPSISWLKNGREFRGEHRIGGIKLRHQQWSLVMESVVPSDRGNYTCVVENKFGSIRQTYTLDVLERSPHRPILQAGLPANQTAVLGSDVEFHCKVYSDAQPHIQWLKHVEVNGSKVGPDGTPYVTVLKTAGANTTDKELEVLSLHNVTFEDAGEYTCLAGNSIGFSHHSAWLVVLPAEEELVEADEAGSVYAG
Procedure, shortened: as §1

FGF-R4 ECD = target: T3, FGF-R4 ECD (Homo sapiens, UniProt P22455); assay: single concentration BLI of crude peptides
T3 construct: DNA constructs for the extracellular domain (ECD) of human FGF-; HPC4 (C); made in house; host or cells: HEK 293-6E
T3 sequence (P22455 22-369 limits assumed): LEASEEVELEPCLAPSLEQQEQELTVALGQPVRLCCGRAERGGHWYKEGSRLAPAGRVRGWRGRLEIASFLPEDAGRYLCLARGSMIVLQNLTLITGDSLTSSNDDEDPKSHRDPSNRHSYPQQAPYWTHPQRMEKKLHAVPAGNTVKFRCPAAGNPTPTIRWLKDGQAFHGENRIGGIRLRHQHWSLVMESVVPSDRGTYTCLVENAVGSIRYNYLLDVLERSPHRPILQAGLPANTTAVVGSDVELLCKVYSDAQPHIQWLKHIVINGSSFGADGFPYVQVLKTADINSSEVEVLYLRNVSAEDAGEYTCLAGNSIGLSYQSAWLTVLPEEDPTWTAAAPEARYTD
Procedure, shortened: as §1

[1] = crude T18 selection 1 (1:1:1) peptides, single concentration BLI (Table S4), read-out: KD (4)

Compound	Kd (FGF-R1C ECD)	Kd (FGF-R3C ECD)	Kd (FGF-R4 ECD; [1])	Kd (FGF-R4 ECD; crude NNK peptides, single concentration BLI (Table S3), read-out: KD (4))	Kd (FGF-R4 ECD)
CC[C@H](C)[C@@H]1NC(=O)[C@H](CC(C)C)NC(=O)[C@H](Cc2ccccc2)NC(=O)[C@H](Cc2ccc(O)cc2)NC(=O)[C@H](CCCCN)NC(=O)[C@H](C)NC(=O)[C@@H](NC(=O)[C@H](CCSC)NC(C)=O)CSSC[C@@H](C(=O)NCC(=O)N[C@@H](CO)C(=O)NCC(=O)N[C@@H](CO)C(=O)N[C@@H](CC(=O)O)C(=O)N[C@@H](Cc2ccc(O)cc2)C(=O)N[C@@H](CCCCN)C(=O)N[C@@H](CC(=O)O)C(=O)N[C@@H](CC(=O)O)C(=O)N[C@@H](CC(=O)O)C(=O)N[C@@H](CC(=O)O)C(=O)N[C@@H](CCCCN)C(N)=O)NC(=O)[C@H](CCC(N)=O)NC(=O)[C@H](CCC(N)=O)NC(=O)[C@H](Cc2ccc(O)cc2)NC(=O)[C@H](C)NC(=O)[C@H](CCCNC(=N)N)NC(=O)[C@H](Cc2c[nH]c3ccccc23)NC1=O (Ac-MCAKYFLIWRAYQQCGSGSDYKDDDDK-NH2; disulfide 2-15)	> 10 µM	> 10 µM	0.01 µM	–	–
CC[C@H](C)[C@@H]1NC(=O)[C@H](Cc2ccc(O)cc2)NC(=O)[C@H](Cc2ccc(O)cc2)NC(=O)[C@H](Cc2ccccc2)NC(=O)[C@H](CC(C)C)NC(=O)[C@H](CC(=O)O)NC(=O)[C@H](CCC(=O)O)NC(=O)[C@@H](NC(=O)[C@H](CCSC)NC(C)=O)CSSC[C@@H](C(=O)NCC(=O)N[C@@H](CO)C(=O)NCC(=O)N[C@@H](CO)C(=O)N[C@@H](CC(=O)O)C(=O)N[C@@H](Cc2ccc(O)cc2)C(=O)N[C@@H](CCCCN)C(=O)N[C@@H](CC(=O)O)C(=O)N[C@@H](CC(=O)O)C(=O)N[C@@H](CC(=O)O)C(=O)N[C@@H](CC(=O)O)C(=O)N[C@@H](CCCCN)C(N)=O)NC(=O)CNC(=O)[C@H](Cc2ccc(O)cc2)NC(=O)[C@H](CCCNC(=N)N)NC(=O)[C@H](CC(N)=O)NC(=O)[C@H]([C@@H](C)CC)NC1=O (Ac-MCEDLFYYIINRYGCGSGSDYKDDDDK-NH2; disulfide 2-15)	> 10 µM	> 10 µM	0.018 µM	–	–
CSCC[C@H](NC(C)=O)C(=O)N[C@H]1CSSC[C@@H](C(=O)NCC(=O)N[C@@H](CO)C(=O)NCC(=O)N[C@@H](CO)C(=O)N[C@@H](CC(=O)O)C(=O)N[C@@H](Cc2ccc(O)cc2)C(=O)N[C@@H](CCCCN)C(=O)N[C@@H](CC(=O)O)C(=O)N[C@@H](CC(=O)O)C(=O)N[C@@H](CC(=O)O)C(=O)N[C@@H](CC(=O)O)C(=O)N[C@@H](CCCCN)C(N)=O)NC(=O)[C@H](Cc2c[nH]c3ccccc23)NC(=O)[C@H](CC(C)C)NC(=O)[C@H](CCCNC(=N)N)NC(=O)[C@H](Cc2ccc(O)cc2)NC(=O)[C@H](CC(C)C)NC(=O)[C@H](Cc2c[nH]c3ccccc23)NC(=O)[C@H](CC(C)C)NC(=O)[C@H](CC(=O)O)NC(=O)[C@H](CCCCN)NC(=O)[C@H](CO)NC(=O)[C@H](Cc2ccc(O)cc2)NC(=O)[C@H](CCCCN)NC(=O)[C@H](Cc2ccc(O)cc2)NC1=O (Ac-MCYKYSKDLWLYRLWCGSGSDYKDDDDK-NH2; disulfide 2-16)	0.502 µM	> 10 µM	0.022 µM	–	–
CSCC[C@H](NC(C)=O)C(=O)N[C@H]1CSSC[C@@H](C(=O)NCC(=O)N[C@@H](CO)C(=O)NCC(=O)N[C@@H](CO)C(=O)N[C@@H](CC(=O)O)C(=O)N[C@@H](Cc2ccc(O)cc2)C(=O)N[C@@H](CCCCN)C(=O)N[C@@H](CC(=O)O)C(=O)N[C@@H](CC(=O)O)C(=O)N[C@@H](CC(=O)O)C(=O)N[C@@H](CC(=O)O)C(=O)N[C@@H](CCCCN)C(N)=O)NC(=O)[C@H](Cc2c[nH]c3ccccc23)NC(=O)[C@H](CC(C)C)NC(=O)[C@H](CC(C)C)NC(=O)[C@H](Cc2ccc(O)cc2)NC(=O)[C@H](Cc2ccc(O)cc2)NC(=O)[C@H](Cc2ccccc2)NC(=O)[C@H](CC(C)C)NC(=O)[C@H](Cc2c[nH]cn2)NC(=O)[C@H](CCC(=O)O)NC(=O)[C@H](CCCCN)NC(=O)[C@H](C)NC1=O (Ac-MCAKEHLFYYLLWCGSGSDYKDDDDK-NH2; disulfide 2-14)	> 10 µM	> 10 µM	0.041 µM	–	–
CC[C@H](C)[C@@H]1NC(=O)[C@H](CC(C)C)NC(=O)[C@H](Cc2ccc(O)cc2)NC(=O)[C@H](Cc2c[nH]cn2)NC(=O)[C@H](Cc2c[nH]cn2)NC(=O)CNC(=O)[C@H](CC(C)C)NC(=O)[C@H](C(C)C)NC(=O)[C@H](Cc2ccccc2)NC(=O)[C@H](CC(=O)O)NC(=O)[C@H](Cc2ccc(O)cc2)NC(=O)[C@H]([C@@H](C)O)NC(=O)[C@@H](NC(=O)[C@H](CCSC)NC(C)=O)CSSC[C@@H](C(=O)NCC(=O)N[C@@H](CO)C(=O)NCC(=O)N[C@@H](CO)C(=O)N[C@@H](CC(=O)O)C(=O)N[C@@H](Cc2ccc(O)cc2)C(=O)N[C@@H](CCCCN)C(=O)N[C@@H](CC(=O)O)C(=O)N[C@@H](CC(=O)O)C(=O)N[C@@H](CC(=O)O)C(=O)N[C@@H](CC(=O)O)C(=O)N[C@@H](CCCCN)C(N)=O)NC1=O (Ac-MCTYDFVLGHHYLICGSGSDYKDDDDK-NH2; disulfide 2-15)	> 10 µM	> 10 µM	> 10 µM	–	–
CSCC[C@H](N)C(=O)N[C@H]1CSSC[C@@H](C(=O)NCC(=O)N[C@@H](CO)C(=O)NCC(=O)N[C@@H](CO)C(=O)N[C@@H](CC(=O)O)C(=O)N[C@@H](Cc2ccc(O)cc2)C(=O)N[C@@H](CCCCN)C(=O)N[C@@H](CC(=O)O)C(=O)N[C@@H](CC(=O)O)C(=O)N[C@@H](CC(=O)O)C(=O)N[C@@H](CC(=O)O)C(=O)N[C@@H](CCCCN)C(N)=O)NC(=O)[C@H](Cc2ccccc2)NC(=O)[C@H](C(C)C)NC(=O)[C@H](Cc2ccccc2)NC(=O)[C@@H]2CCCN2C(=O)[C@H](CC(C)C)NC(=O)[C@H](Cc2c[nH]c3ccccc23)NC(=O)[C@H](CO)NC(=O)[C@H](CC(=O)O)NC(=O)[C@H](Cc2ccccc2)NC(=O)[C@H](C(C)C)NC1=O (H-MCVFDSWLPFVFCGSGSDYKDDDDK-NH2; disulfide 2-13)	> 10 µM	1.06 µM	–	> 10 µM	–
GSGSDYKDDDDK-NH2 [flag, reference compound]	> 10 µM	> 10 µM	–	–	> 10 µM
CSCC[C@H](NC(C)=O)C(=O)N[C@H]1CSSC[C@@H](C(=O)NCC(=O)N[C@@H](CO)C(=O)NCC(=O)N[C@@H](CO)C(=O)N[C@@H](CC(=O)O)C(=O)N[C@@H](Cc2ccc(O)cc2)C(=O)N[C@@H](CCCCN)C(=O)N[C@@H](CC(=O)O)C(=O)N[C@@H](CC(=O)O)C(=O)N[C@@H](CC(=O)O)C(=O)N[C@@H](CC(=O)O)C(=O)N[C@@H](CCCCN)C(N)=O)NC(=O)[C@H](Cc2ccc(O)cc2)NC(=O)[C@H](C(C)C)NC(=O)[C@H](Cc2ccccc2)NC(=O)[C@H](C(C)C)NC(=O)[C@H](CCCCN)NC(=O)[C@H]([C@@H](C)O)NC(=O)[C@H](CCCCN)NC(=O)[C@H](Cc2c[nH]cn2)NC(=O)[C@H](CC(=O)O)NC(=O)[C@H](CC(C)C)NC(=O)[C@H](Cc2ccccc2)NC1=O (Ac-MCFLDHKTKVFVYCGSGSDYKDDDDK-NH2; disulfide 2-14)	> 10 µM	> 10 µM	0.13 µM	–	–
CSCC[C@H](NC(C)=O)C(=O)N[C@H]1CSSC[C@@H](C(=O)NCC(=O)N[C@@H](CO)C(=O)NCC(=O)N[C@@H](CO)C(=O)N[C@@H](CCC(=O)O)C(=O)N[C@@H](CCC(=O)O)C(=O)NCC(=O)N[C@@H](CO)C(=O)NCC(=O)N[C@@H](CO)C(=O)N[C@@H](CC(=O)O)C(=O)N[C@@H](Cc2ccc(O)cc2)C(=O)N[C@@H](CCCCN)C(=O)N[C@@H](CC(=O)O)C(=O)N[C@@H](CC(=O)O)C(=O)N[C@@H](CC(=O)O)C(=O)N[C@@H](CC(=O)O)C(=O)N[C@@H](CCCCN)C(N)=O)NC(=O)[C@H](Cc2ccccc2)NC(=O)[C@H](CCCCN)NC(=O)CNC(=O)[C@H](CCCCN)NC(=O)[C@H](Cc2c[nH]c3ccccc23)NC(=O)[C@H](CC(C)C)NC(=O)[C@H](CC(C)C)NC(=O)[C@H](Cc2ccccc2)NC(=O)[C@H](C)NC(=O)[C@H](CCCCN)NC(=O)[C@H](C)NC1=O (Ac-MCAKAFLLWKGKFCGSGSEEGSGSDYKDDDDK-NH2; disulfide 2-14)	> 10 µM	> 10 µM	> 10 µM	–	–
